# Reference: PubChem BioAssay AID276 (DTP/NCI, 2004)
# Several values for one entry are separate records, joined by “and”; a condition that tells them apart may be missing. Equal values may be shown once. Inconclusive results and toxic doses are left out. Residues, ends and D or L forms follow the SMILES beside them. *: point of attachment. Trt = c1ccc(C(c2ccccc2)(c2ccccc2)*)cc1; Cbz = O=C(OCc1ccccc1)*; Bn = c1ccc(C*)cc1; βAla = NCCC(=O)O
# System: B6C3F1 mice, Lewis lung carcinoma iv, survival T/C
# Test: NCI In Vivo Anticancer Drug Screen. Data for tumor model Lewis Lung Carcinoma (intravenous) in B6C3F1 mice
# Details: endpoint: median survival time, schedule: Q01DX009 (ip), higher = longer survival
# In short: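 T/C ratio derived from survival of compound-treated versus vehicle-treated mice bearing transplantable tumors.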
# [1] = dose: 25.0 mg/kg/injection, vehicle: suspension in saline
# [2] = dose: 50.0 mg/kg/injection, vehicle: suspension in saline
# [3] = dose: 100.0 mg/kg/injection, vehicle: suspension in saline
# [4] = dose: 200.0 mg/kg/injection, vehicle: suspension in saline
# [5] = dose: 12.5 mg/kg/injection, vehicle: saline
# [6] = dose: 25.0 mg/kg/injection, vehicle: saline
# [7] = dose: 50.0 mg/kg/injection, vehicle: saline
# [8] = dose: 100.0 mg/kg/injection, vehicle: saline
# [9] = dose: 200.0 mg/kg/injection, vehicle: saline
# [10] = dose: 12.5 mg/kg/injection, vehicle: saline with Tween-80
# [11] = dose: 25.0 mg/kg/injection, vehicle: saline with Tween-80
# [12] = dose: 50.0 mg/kg/injection, vehicle: saline with Tween-80
# [13] = dose: 100.0 mg/kg/injection, vehicle: saline with Tween-80
# [14] = dose: 6.25 mg/kg/injection, vehicle: saline
# [15] = dose: 3.12 mg/kg/injection, vehicle: water
# [16] = dose: 6.25 mg/kg/injection, vehicle: water
# [17] = dose: 12.5 mg/kg/injection, vehicle: water
# [18] = dose: 6.25 mg/kg/injection, vehicle: saline with Tween-80
# [19] = dose: 3.12 mg/kg/injection, vehicle: saline
# [20] = dose: 12.5 mg/kg/injection, vehicle: Klucel (hydroxypropylcellulose) (HPC)
# [21] = dose: 25.0 mg/kg/injection, vehicle: Klucel (hydroxypropylcellulose) (HPC)
# [22] = dose: 50.0 mg/kg/injection, vehicle: Klucel (hydroxypropylcellulose) (HPC)
# [23] = dose: 100.0 mg/kg/injection, vehicle: Klucel (hydroxypropylcellulose) (HPC)
# [24] = dose: 200.0 mg/kg/injection, vehicle: Klucel (hydroxypropylcellulose) (HPC)
# [25] = dose: 400.0 mg/kg/injection, vehicle: Klucel (hydroxypropylcellulose) (HPC)
# [26] = dose: 3.12 mg/kg/injection, vehicle: Klucel (hydroxypropylcellulose) (HPC)
# [27] = dose: 6.25 mg/kg/injection, vehicle: Klucel (hydroxypropylcellulose) (HPC)
# [28] = dose: 3.12 mg/kg/injection, vehicle: saline with Tween-80
compound,measurement,setting,value
Cc1cc2nc3c(=O)[nH]c(=O)nc-3n(CC(O)C(O)C(O)C(O)CO)c2cc1C (stereo not given),T/C,[1],95 % of control
same,T/C,[2],110 % of control
same,T/C,[3],111 % of control
same,T/C,[4],115 % of control
CCCC(=O)O,T/C,[5],123 % of control
same,T/C,[6],109 % of control
same,T/C,[7],114 % of control
same,T/C,[8],106 % of control
same,T/C,[9],98 % of control
O=C(O)C(CSC(c1ccccc1)(c1ccccc1)c1ccccc1)N=Cc1cccs1 (stereo not given),T/C,"dose: 12.5 mg/kg/injection, vehicle: suspension in saline",104 % of control
same,T/C,[1],100 % of control
same,T/C,[2],105 % of control
CC[C@H](CC[C@@H](C)C1CC[C@H]2[C@@H]3CC=C4C[C@@H](OP(=O)(N5CC5)N5CC5)CC[C@]4(C)[C@H]3CC[C@]12C)C(C)C (stereo not given in full),T/C,[10],100 % of control
same,T/C,[11],95 % of control
same,T/C,[12],97 % of control
same,T/C,[13],100 % of control
same,T/C,"dose: 200.0 mg/kg/injection, vehicle: saline with Tween-80",95 % of control
O=C(O)CP(=O)(O)O,T/C,[5],94 % of control
same,T/C,[6],97 % of control
same,T/C,[7],97 % of control
same,T/C,[8],95 % of control
same,T/C,[9],92 % of control
same,T/C,"dose: 400.0 mg/kg/injection, vehicle: saline",94 % of control
same,T/C,"dose: 800.0 mg/kg/injection, vehicle: saline",94 % of control
Cn1/c2cc/c1=C(\c1ccc(S(=O)(=O)O)cc1)c1ccc([n-]1)/C(c1ccc(S(=O)(=O)O)cc1)=c1/cc/c([nH]1)=C(\c1ccc(S(=O)(=O)O)cc1)c1ccc([n-]1)/C=2c1ccc(S(=O)(=O)O)cc1.O.O=S(=O)(O)C(F)(F)F.[Cu+2],T/C,[14],109 % of control
same,T/C,[5],112 % of control
same,T/C,[6],116 % of control
same,T/C,[7],112 % of control
O=NN(CCCl)C(=O)NCCO,T/C,"dose: 0.78 mg/kg/injection, vehicle: water",107 % of control
same,T/C,[15],184 % of control and 213 % of control and 215 % of control
same,T/C,[16],178 % of control and 312 % of control
same,T/C,[17],90 % of control
CC1=C[S+](c2ccccc2)c2cccc3cc4ccccc4c1c23 (stereo not given),T/C,"dose: 0.12 mg/kg/injection, vehicle: saline with Tween-80",106 % of control
same,T/C,"dose: 0.25 mg/kg/injection, vehicle: saline with Tween-80",113 % of control
same,T/C,"dose: 0.5 mg/kg/injection, vehicle: saline with Tween-80",95 % of control
same,T/C,"dose: 1.0 mg/kg/injection, vehicle: saline with Tween-80",100 % of control
same,T/C,"dose: 2.0 mg/kg/injection, vehicle: saline with Tween-80",106 % of control
same,T/C,"dose: 4.0 mg/kg/injection, vehicle: saline with Tween-80",101 % of control
Cc1ccc2c(ccc(/C=C/c3ccc(O)c4ncccc34)[n+]2C)c1,T/C,[5],100 % of control
same,T/C,[6],86 % of control
O=[N+]([O-])c1ccc(Sc2ccncn2)c([N+](=O)[O-])c1,T/C,[18],90 % of control
same,T/C,[10],102 % of control
same,T/C,[11],95 % of control
same,T/C,[12],86 % of control
same,T/C,[13],99 % of control
NC(=O)/C=C/c1c[nH]c2nccnc12,T/C,"dose: 1.56 mg/kg/injection, vehicle: water",94 % of control
same,T/C,[15],88 % of control
same,T/C,[16],92 % of control
same,T/C,[17],94 % of control
same,T/C,"dose: 25.0 mg/kg/injection, vehicle: water",94 % of control
CCOC(=O)Nc1cc2c(c(N)n1)N=C(c1ccc(Cl)cc1Cl)CN2,T/C,[18],97 % of control
same,T/C,[10],113 % of control
Cc1c2cc[n+](CCN3CCCCC3)cc2c(C)c2c1[nH]c1ccc(O)cc12,T/C,"dose: 1.56 mg/kg/injection, vehicle: saline",94 % of control
same,T/C,[19],116 % of control
same,T/C,[14],106 % of control
same,T/C,[5],103 % of control
same,T/C,[6],104 % of control
NC(=S)c1cn(C2OC(CO)C(O)C2O)c2ncnc(N)c12 (stereo not given),T/C,"dose: 0.62 mg/kg/injection, vehicle: suspension in saline",100 % of control
same,T/C,"dose: 1.25 mg/kg/injection, vehicle: suspension in saline",90 % of control
same,T/C,"dose: 2.5 mg/kg/injection, vehicle: suspension in saline",99 % of control
same,T/C,"dose: 5.0 mg/kg/injection, vehicle: suspension in saline",94 % of control
CCNC(=O)[B-][N+](C)(C)C,T/C,[20],98 % of control
same,T/C,[21],103 % of control
same,T/C,[22],100 % of control
same,T/C,[23],106 % of control
COC(=O)C(CSC(c1ccccc1)(c1ccccc1)c1ccccc1)NC(=O)C(CSCc1ccccc1)NC(=O)CCNC(=O)OCc1ccccc1 (stereo not given) ({Cbz-βAla}-Cys(Bn)-Cys(Trt)-OMe; configuration not given here),T/C,[22],93 % of control
same,T/C,[23],98 % of control
same,T/C,[24],97 % of control
same,T/C,[25],100 % of control
same,T/C,"dose: 800.0 mg/kg/injection, vehicle: Klucel (hydroxypropylcellulose) (HPC)",98 % of control
CCCCCC[C@H]([C@H](C)O)n1cnc2c(N)ncnc21,T/C,[26],88 % of control
same,T/C,[27],101 % of control
same,T/C,[20],114 % of control
same,T/C,[21],94 % of control
same,T/C,[22],109 % of control
same,T/C,[23],105 % of control
CCCCCCCCCCCCN1C(C)=CS/C1=C\C=C\c1scc(C)[n+]1CCCCCCCCCCCC,T/C,"dose: 1.56 mg/kg/injection, vehicle: saline with Tween-80",90 % of control
C#CCNC1=C(C)C(=O)C2=C(C1=O)[C@H](COC(N)=O)[C@]1(OC)[C@@H]3N[C@@H]3CN21,T/C,"dose: 6.25 mg/kg/injection, vehicle: distilled water + Tween-80",102 % of control
CCCCCCCCCCCCSC1=C(Cl)C(=O)C(OC)=C(OC)C1=O,T/C,[28],99 % of control
same,T/C,[18],94 % of control
same,T/C,[10],99 % of control
same,T/C,[11],94 % of control
same,T/C,[12],96 % of control
CCc1ccccc1N1CCN(C(=O)c2cc(OC)c(OC)c(OC)c2)CC1,T/C,[27],106 % of control
same,T/C,[20],103 % of control
same,T/C,[21],110 % of control
same,T/C,[22],110 % of control
same,T/C,[23],105 % of control
COC12C(COC(=O)NCCO)C3=C(C(=O)C(C)=C(N)C3=O)N1CC1NC12 (stereo not given),T/C,[26],111 % of control
same,T/C,[27],102 % of control
ClC1=C(Cl)C(Cl)=C(Cl)C1=Cc1ccccc1,T/C,[28],94 % of control and 101 % of control
same,T/C,[18],98 % of control and 108 % of control
same,T/C,[10],98 % of control
same,T/C,[11],97 % of control
same,T/C,[12],105 % of control
COc1ccc2ccccc2c1C1NC(=O)c2ccccc2N1 (stereo not given),T/C,[20],97 % of control
same,T/C,[21],100 % of control
same,T/C,[23],99 % of control
same,T/C,[24],101 % of control
same,T/C,[25],101 % of control
O=C1CN(CCN2CC(=O)N(CN3CCOCC3)C(=O)C2)CC(=O)N1CN1CCOCC1,T/C,"dose: 100.0 mg/kg/injection, vehicle: water",100 % of control
CN(C)CCC(=O)C(=Cc1ccc(O)cc1)C(=O)CCN(C)C,T/C,[5],97 % of control
same,T/C,[6],101 % of control
same,T/C,[7],102 % of control
same,T/C,[8],105 % of control and 106 % of control
same,T/C,[9],104 % of control and 107 % of control
COc1ccc2[nH]c3ccc4cc[n+](CCN5CCC(C6CCN(CC[n+]7ccc8ccc9[nH]c%10ccc(OC)cc%10c9c8c7)CC6)CC5)cc4c3c2c1,T/C,[27],106 % of control
same,T/C,[20],91 % of control and 103 % of control
same,T/C,[21],99 % of control
O=C1NC(O)c2ccccc2O1 (stereo not given),T/C,[1],106 % of control
same,T/C,[2],89 % of control
same,T/C,[3],107 % of control
same,T/C,[4],97 % of control
C[n+]1c(-c2cccc3ccccc23)c2cc(N)ccc2c2ccccc21,T/C,[19],94 % of control
same,T/C,[14],90 % of control
